Assay results as given in patent US20090264382A1, “Methods for Treating Hematopoietic Neoplasms” (priority 2007, published 2009).
Each block holds one compound with its values, some of them ahead of it. Where a SMILES comes first, the peptide text is derived from it. The star is where a group is joined. Cbz = O=C(OCc1ccccc1)*; CH2F = FC*

What was measured:
Assay type in all cases: cell-based, human
[1] = tested on: HL60 cells; experiment: Reversal of CA4P-induced apoptosis by caspase inhibitors and ROS scavenger, Annexin V/PI
Procedure: Leukemic cells were treated with or without CA4P for 48 hours in presence of caspase inhibitor Q-VD and the percentage of apoptotic leukemic cells was determined by Annexin V and propidium iodide staining using flow cytometry. Percentage of alive Annexin V(−)/PI(−) cells was plotted.
HL-60 cells were treated with or without CA4P for 48 hours in presence of another ROS scavenger, deferoxamine (DFX), and caspase inhibitor Q-VD and the percentage of apoptotic leukemic cells was determined by Annexin V and propidium iodide staining using flow cytometry.

[2] = tested on: caspase-3; experiment: CA4P-induced caspase-3 activation
[3] = tested on: leukemic cells (HL60, R81, U937, KG1a, THP-1); experiment: Protection from CA4P-mediated cell death by ascorbic acid, trypan blue exclusion; conditions: CA4P 5 or 10 nM, 48 hours
Procedure: Leukemic cells were treated with 5 nM (HL60, R81, U937) or 10 nM (KG1a, THP-1) for 48 hours with the ascorbic acid concentrations indicated and viable cells determined by trypan blue exclusion. Results of three experiments in triplicate are expressed as percentage of viable cells compared to control±SEM (*p<0.05 as compared with CA4P-untreated cells; n=3).

[4] = tested on: leukemic cells; experiment: Intracellular ROS detection with H2DCFDA
Procedure: Intracellular ROS were detected as previously described (Krejsa & Schieven, Methods Mol Biol 99:35-47 (2000)). Briefly, leukemic cells were loaded with 2 μM H2DCFDA (Molecular Probes) in assay buffer (RPMI with 10 mM HEPES) for 30 min. at 37° C. and mean fluorescent intensity was measured by flow cytometry. Results are shown from triplicate measurements (±SEM) and are representative of three independent experiments (*p<0.05 as compared with untreated cells; n=3).

[5] = tested on: KG1a leukemic cells; experiment: Release of nuclear HMG1 protein into supernatant (necrosis marker), Western blot; conditions: 24 hours, CA4P 20 mM, staurosporine 100 μM as printed
Procedure: Nonetheless, to rule out the possibility that CA4P may trigger necrotic cell death in subsets of the leukemic cells, the release of nuclear HMG1 protein into the culture supernatant, which has been described as a sensitive and highly specific marker for necrotic cell death (Scaffidi, et al. 2002. Nature 418, 191-5), was quantified. For detection of HMG1 protein, KG1a leukemic cells (1×106 in 2 ml X-vivo/5% FBS) were incubated with 100 μM staurosporine to induce apoptosis, freeze-thawed three times to induce necrosis, or treated with 20 mM CA4P for 24 hours. Cells were spun down, pelleted and the supernatant subjected to Western blot for HMG135.

Compound: CC(=O)N(O)CCCCCNC(=O)CCC(=O)N(O)CCCCCNC(=O)CCC(=O)N(O)CCCCCN [DFX, deferoxamine]
inhibition of CA4P-induced cell death ([1]; HL60, DFX together with caspase inhibitor Q-VD, 48 hours): up to 71%

CA4P-induced caspase-3 activation [2]: blocked
Compound: CC(C)[C@H](NC(=O)c1ccc2ccccc2n1)C(=O)N[C@@H](CC(=O)O)C(=O)COc1c(F)cccc1F [Q-VD, Q-VD-OPh]
CA4P induced apoptosis blocked ([1]; HL60 cells, 48 hours, Annexin V/PI): 33%

CA4P-induced caspase-3 activation [2]: blocked
Compound: COC(=O)C[C@H](NC(=O)[C@H](C)NC(=O)[C@@H](NC(=O)OCc1ccccc1)C(C)C)C(=O)CF [Z-VAD-fmk] (Cbz-Val-Ala-Asp(OMe)-CH2F)
effect on CA4P-induced apoptosis ([1]; data not shown): no effect

Compound: O=C1O[C@H]([C@@H](O)CO)C(O)=C1O [ascorbic acid, reference compound]
effect of co-incubation on CA4P-mediated cell death [3]: partial decrease in CA4P-mediated cell death
effect on CA4P-induced ROS accumulation [4]: reversal of ROS accumulation

Compound: CN[C@@H]1C[C@H]2O[C@@](C)([C@@H]1OC)n1c3ccccc3c3c4c(c5c6ccccc6n2c5c31)C(=O)NC4 [staurosporine, reference compound]
release of nuclear HMG1 protein into the supernatant [5]: not
